Results: patent publication US9399635B2, “Pyrazole derivative” (GREEN TECH CO., LTD., priority 2011, dated 2016)
Where two headings read alike, the source gives them in different places.

Tests used:
[1] = Evaluation of in vivo pharmacokinetics (blood and brain concentrations, LC-MS/MS); details: male, rat, SD rats, brain
Description: Pharmacological test example 4: Evaluation of in vivo pharmacokinetics
To SD rats (male, 7 weeks old), the test compound was orally administered (p. o.) at an amount of 50 mg/kg bw or intravenously administered (i.v.) at an amount of 1 mg/kg bw and the concentrations in the blood and brain were measured up to 3 hours. The administration vehicle was an 80% PEG 400 aqueous solution. The blood was collected under isoflurane inhalational anesthesia and the brain was harvested after the rats were sacrificed. The plasma was separated from the blood. The brain was homogenized after addition of a three-fold volume of PBS and then methanol was added thereto. Thus the prepared test samples were subjected to measurement. The measurement was performed by LC-MS/MS (Applied Biosystems and Waters).
The blood concentration changes of the compounds of Example 2 and Example 2 (2) ((1E,6E)-1-(1H-indol-6-yl)-7-[2-methoxy-4-(2-pyridylmethoxy)phenyl]hepta-1,6-diene-3,5-dione) after oral administration (p.o.) thereof are shown in FIG. 2. The brain concentration changes of the compounds after intravenous administration (i.v.) and oral administration (p.o.) thereof are shown in Table 2.

[2] = biological target: recombinant three-repeat microtubule-binding domain (3R-MBD) of tau protein (Homo sapiens, UniProt P10636); experiment: Determination of tau aggregation inhibitory activity (heparin-induced, thioflavin T fluorescence; electron microscope); type: biochemical; details: for IC50: 3R-MBD tau 10 μM, heparin 10 μM, 37° C. for 16 hours, thioflavin T, read-out: IC50 (μM) Test example 1 (tau aggregation inhibitory activity); for tau aggregation inhibitory activity at 1 μM: compound at 1 μM
recombinant three-repeat microtubule-binding domain (3R-MBD) of tau protein, sequence (P10636 186-279 isoform P10636-2 limits assumed): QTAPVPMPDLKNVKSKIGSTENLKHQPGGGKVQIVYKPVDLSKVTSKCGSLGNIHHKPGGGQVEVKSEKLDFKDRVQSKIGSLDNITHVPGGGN
Description: Pharmacological Test Example 1: Determination of Tau Aggregation Inhibitory Activity
A recombinant three-repeat microtubule-binding domain (3R-MBD) of tau protein was expressed in E. coli and was purified and used for the experiment. The purified tau solution was diluted with a 50 mM Tris-HCl buffer (pH 7.6) to a final concentration of 10 μM. The test compounds were prepared using dimethylsulfoxide (DMSO) at 20-fold of their final concentrations and added to the plate so that the DMSO concentration would be 5%. Heparin was added to the plate so that the final concentration would be 10 μM and the plate was left to stand at 37° C. for 16 hours. Thioflavin T was added to the plate so that the concentration would be 10 μM and the fluorescence intensity was measured with a fluorescence plate reader (PerkinElmer, Inc.) (excitation wavelength: 440 nm; emission wavelength: 480 nm).
(§1) The final concentration of each compound at the time of measurement was set at 0.1, 0.3, 1, 3, and 10 μM. The sample to which only DMSO was added was used as a negative control and its fluorescence intensity was taken as 0% inhibitory activity.
The samples were placed on a grid and washed with distilled water. A 1 mM phosphotungstic acid aqueous solution was added to the samples. The samples were washed, dried overnight, and observed.

[3] = biological target: T1, recombinant human β-secretase (Homo sapiens, UniProt P56817); experiment: Determination of β-secretase inhibitory activity (BACE-1 FRET assay Kit); type: biochemical; details: for IC50: recombinant human β-secretase, fluorescent substrate peptide, 1 hour, read-out: IC50 (μM) Test example 2 (β-secretase inhibitory activity); for inhibition at 1 µM: compound at 1 μM
T1 construct: purchased Invitrogen
T1 sequence (P56817 46-501): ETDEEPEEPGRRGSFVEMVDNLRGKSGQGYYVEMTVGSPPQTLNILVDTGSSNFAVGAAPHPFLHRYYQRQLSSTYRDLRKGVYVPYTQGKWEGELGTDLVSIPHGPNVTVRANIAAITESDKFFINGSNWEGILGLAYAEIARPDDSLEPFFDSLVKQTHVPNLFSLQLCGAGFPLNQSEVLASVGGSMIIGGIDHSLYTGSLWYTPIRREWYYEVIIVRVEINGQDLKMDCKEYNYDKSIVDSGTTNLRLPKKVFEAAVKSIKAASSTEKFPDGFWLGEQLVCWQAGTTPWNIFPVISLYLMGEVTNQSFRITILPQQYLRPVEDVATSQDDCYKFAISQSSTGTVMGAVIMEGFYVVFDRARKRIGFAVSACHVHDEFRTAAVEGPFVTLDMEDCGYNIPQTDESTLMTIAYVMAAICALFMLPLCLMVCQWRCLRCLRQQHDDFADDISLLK
Description: Pharmacological Test Example 2: Determination of β-Secretase Inhibitory Activity
The β-secretase inhibitory activity was measured with BACE-1 FRET assay Kit (Invitrogen). The test compounds were prepared using DMSO at 30-fold of their final concentrations and dissolved so that the DMSO concentration would be 10%. To each of the solutions, an equal volume of a recombinant human β-secretase (1 U/mL) dissolved in the assay buffer and an equal volume of fluorescent substrate peptide (2.5 nM) were added and the solutions were left to stand for 1 hour. The fluorescence intensity was measured with a fluorescence plate reader (excitation wavelength: 545 nm; emission wavelength: 590 nm).
The final concentration of each compound at the time of measurement was set at 0.1, 0.3, 1, 3, and 10 μM, at 0.3, 1, 3, 10, and 30 μM, or at 1, 3, 10, 30, and 100 μM.

Aβ 1-42 = biological target: T2, Aβ 1-42 (Homo sapiens, UniProt P05067); experiment: Determination of Aβ aggregation inhibitory activity (thioflavin T fluorescence); type: biochemical; details: for IC50: Aβ 1-42, 37° C. for 24 hours, thioflavin T, read-out: IC50 (μM) Test example 3 (Aβ aggregation inhibitory activity)
T2 construct: Aβ 1-42 (Peptide Institute, Inc.) was dissolved in 0.3% ammonia water; purchased Peptide Institute, Inc
T2 sequence (P05067 672-713): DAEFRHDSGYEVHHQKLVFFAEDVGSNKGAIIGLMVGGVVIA
Description: Pharmacological test example 3: Determination of Aβ aggregation inhibitory activity
Aβ 1-42 (Peptide Institute, Inc.) was dissolved in 0.3% ammonia water so that the concentration would be 0.5 mM and then diluted with PBS to 20 μM. The test compounds were prepared using DMSO at 100-fold of their final concentrations and adjusted so that the DMSO concentration would be 2%. The Aβ solution and each of the test compound solutions were mixed at an equivalent ratio and the mixtures were incubated at 37° C. for 24 hours. To each of the mixtures, an equal volume of a thioflavin T solution adjusted with a 100 mM Tris-glycine buffer (pH 8.5) to 6 μM was added. The fluorescence intensity was measured with a fluorescence plate reader (excitation wavelength: 440 nm; emission wavelength: 480 nm).
as §1

COc1cc(OCc2ccccn2)ccc1/C=C/C(=O)CC(=O)/C=C/c1ccc2cc[nH]c2c1 [Example 2 (2), (1E,6E)-1-(1H-indol-6-yl)-7-[2-methoxy-4-(2-pyridylmethoxy)phenyl]hepta-1,6-diene-3,5-dione]
concentration at 5 min ([1]; intravenous 1 mg/kg bw, 5 min, read-out: brain concentration i.v. 5 min): 5.15 ± 3.34 ng/mL
concentration at 180 min ([1]; intravenous 1 mg/kg bw, read-out: brain concentration i.v. 180 min): 0.93 ± 0.67 ng/mL
concentration at 60 min ([1]; oral 50 mg/kg bw, 60 min, read-out: brain concentration p.o. 60 min): 0 ng/mL
concentration at 180 min ([1]; oral 50 mg/kg bw, read-out: brain concentration p.o. 180 min): 18 ± 30.8 ng/mL

COc1cc(OCc2nccs2)ccc1/C=C/c1cc(/C=C/c2ccc3cc[nH]c3c2)[nH]n1 [Example 82, 3-[(1E)-2-(1H-indol-6-yl)ethenyl]-5-[(1E)-2-[2-methoxy-4-(1,3-thiazol-2-ylmethoxy)phenyl]ethenyl]-1H-pyrazole]
IC50 [2]: 1.04 µM
IC50 [3]: 3.99 µM
melting point: 229 to 237 °C
IC50 (Aβ 1-42): 4.43 µM

COc1cc(OCc2ccccn2)ccc1/C=C/c1cc(/C=C/c2ccc3c(c2)OCCO3)[nH]n1 [Example 83, 3-[(1E)-2-(1,4-benzodioxan-6-yl)ethenyl]-5-[(1E)-2-[2-methoxy-4-(2-pyridylmethoxy)phenyl]ethenyl]-1H-pyrazole]
IC50 [2]: 0.85 µM
IC50 [3]: 22.7 µM
melting point: 153 to 155 °C
IC50 (Aβ 1-42): > 10 µM

CCN(CC)c1ccc(/C=C/c2cc(/C=C/c3ccc4cc[nH]c4c3)[nH]n2)c(OCCN2CCOCC2)c1 [Example 98, 3-[(1E)-2-[4-diethylamino-2-(2-morpholinoethoxy)phenyl]ethenyl]-5-[(1E)-2-(1H-indol-6-yl)ethenyl]-1H-pyrazole]
IC50 [2]: 1.29 µM
IC50 [3]: 1.25 µM
melting point: 96 to 99 °C
IC50 (Aβ 1-42): 3.27 µM

CN1CCN(c2ccc(/C=C/c3cc(/C=C/c4ccc5cc[nH]c5c4)[nH]n3)cc2)CC1 [Example 102, 5-[(1E)-2-(1H-indol-6-yl)ethenyl]-3-[(1E)-2-[4-(4-methylpiperazin-1-yl)phenyl]ethenyl]-1H-pyrazole]
IC50 [2]: 1.46 µM
IC50 [3]: 1.06 µM
melting point: 192 to 198 °C
IC50 (Aβ 1-42): 4.33 µM

COc1cc(OCc2ccccn2)ccc1/C=C/c1cc(/C=C/c2ccc(OCc3ccccn3)cc2OC)[nH]n1 [Example 110, 3,5-bis[(1E)-2-[2-methoxy-4-(2-pyridylmethoxy)phenyl]ethenyl]-1H-pyrazole]
tau aggregation inhibitory activity at 1 μM [2]: 0%
inhibition at 1 µM [3]: 12%
melting point: 195 to 197 °C
IC50 (Aβ 1-42): 1.9 µM

COc1cc(OCc2ccccn2)ccc1/C=C/c1cc(/C=C/c2ccc(O)c(N)c2)[nH]n1 [Example 111, 3-[(1E)-2-[2-methoxy-4-(2-pyridylmethoxy)phenyl]ethenyl]-5-[(1E)-2-(3-amino-4-hydroxy-phenyl)ethenyl]-1H-pyrazole]
IC50 [2]: 1.46 µM
IC50 [3]: 2.89 µM
melting point: 123 to 126 °C
IC50 (Aβ 1-42): 5.05 µM

C(=C\c1cc(/C=C/c2ccc3cc[nH]c3c2)[nH]n1)/c1ccc2cc[nH]c2c1 [Example 112, 3,5-bis[(1E)-2-(1H-indol-6-yl)ethenyl]-1H-pyrazole]
tau aggregation inhibitory activity at 1 μM [2]: 24%
inhibition at 1 µM [3]: 30%
melting point: 289 to 291 °C
IC50 (Aβ 1-42): 2.8 µM
inhibition at 3 µM (Aβ 1-42; compound at 3 μM): 17%
